Experimental data published in patent publication US20240009436A1, “LOCALIZED […] OF […] […] AGENTS USING FOCUSED ULTRASOUND” (priority 2020, published 2024).

Tests used:
[1] = tested on: vS1-vM1 circuit (wEPs in vM1); assay: Whisker-evoked potentials (wEPs) in vM1 after delivery to vS1 in anesthetized rats; assay type: in vivo, rat
Experimental: The AU-FUS sequence [AU-FUS (in vivo); see Table 1] was tested in vivo by manipulating a specific cortical network without opening the BBB. Rat vibrissa motor cortex (vM1) receives whisker sensory information (˜80%) through projections from vibrissa sensory cortex (vS1, “Barrel cortex”). When rodent whiskers are mechanically deflected, evoked activity propagates from brainstem via thalamus to vS1, and then to vM1. During simultaneous recordings the peaks of whisker-evoked potentials (wEPs) were observed first in vS1 and ˜3.0 ms later in vM1. It was tested whether inhibiting vS1 by the novel technique would suppress wEPs in vM1 in anesthetized rats. The FUS transducer was positioned above the intact skull and focused on vS1. Using a multielectrode array, the wEPs and the whisker-evoked multi-unit activity in vM1 were monitored online. In parallel, muscimol-loaded UC-carriers were continuously (i.v.) injected. The AU-FUS sequence was applied repeatedly on vS1 to aggregate the UC-carriers and to uncage muscimol. Muscimol is an agonist of ionotropic GABAA receptors, the major receptor responsible for fast inhibitory transmission in the brain, which […] the BBB.
The animal was anesthetized, a small craniotomy was performed over vM1 (TZ region) or V1 for inserting a recording probe 140, and a FUS transducer 136 was positioned on the intact skull above vS1 with the help of stereotaxic coordinates and coupled with sterile ultrasound gel and water collimator.
Muscimol-loaded UC-carriers were injected intravenously through the tail vein using an infusion pump 110. vM1 and V1 recordings were performed on separate cohorts.
Whiskers were cut to around 15 mm length. The 8-12 largest whiskers were inserted into a glass capillary tube which was attached to a piezo actuator (T223-H4CL-503X, Piezo Systems). The piezo actuator was shielded with a custom-made copper cover. The whiskers were deflected with 120 Hz cosine pulses (292 mm/s velocity, displaced 2.34 mm in 8 ms) which were generated in LabView (National Instruments) and converted into an analog signal (DAC NI, USB-6211) which then drove the piezo actuator. Stimulus presentation was synchronized with the electrophysiological recordings with a TTL signal at stimulus onset. Whiskers were continuously stimulated at a repetition rate of 0.3 Hz.
All electrophysiological data were recorded with a RHD2000 system (Intan Technologies) with 30 kS/s sampling rate. All stereotaxic coordinates were determined with respect to bregma. A 32 channel Neuronexus probe (A2x16-10 mm-100-500-177-A32, 15 or 50 μm thick) attached to a motorized 3D arm (StereoDrive-960HD, Neurostar), fixed outside of the stereotaxic frame, was inserted into the vM1 (Coordinates AP: 1-2 mm, ML: 0.5-1 mm, depending on the vasculature, DV: 1.5-2 mm from pia) at 50° to the coronal plane. The probe was initially inserted ˜250-500 μm below the cortical surface. The FUS transducer was integrated with an acoustic collimator which was filled with degassed and deionized water and contained a polystyrene film (McMaster-Carr) at the end. The collimator's shape was designed according to the FUS transducer's geometry so that it would not interfere with the FUS beam. This assembly was stereotaxically positioned such that the FUS focal volume was targeted to vS1 (Coordinates AP: −2.3 mm, ML: 6 mm, DV: 3.3 mm from skull surface) at a 30° angle with respect to the sagittal plane such that the focal volume of FUS beam targeted cortical layers of vS1. […]

[2] = rat barrel cortex; cited from earlier work
[3] = tested on: VEPs in primary visual cortex (V1); assay: Visually evoked potentials (VEPs) in V1 after delivery to vS1; assay type: in vivo, rat; conditions: muscimol delivered to vS1 using AU-FUS
Experimental: To rule out that the observed modulation of vM1 could be due to spreading of muscimol from vS1, signals were recorded from a cortical area close to vS1 but without significant connectivity with vS1: Muscimol was delivered to vS1 using AU-FUS, and the visually evoked potentials (VEPs) were measured from primary visual cortex (V1). […] V1 and vM1 recordings were done on separate cohorts. The same ultrasound parameters were used for both vS1-vM1 and vS1-V1 paradigms.
The protocol used for vS1-V1 was the same as vS1-vM1 paradigm with the following exceptions: FUS sonication coordinates were changed to AP: −2.3 mm, ML: 6.5 mm, DV: 3.3 mm from skull surface and FUS angle was changed from 30° to 34° to create space for electrode insertion to V1. A more lateral region of vS1 was sonicated to achieve better coupling with skull with the new angling of the FUS transducer. Electrode insertion coordinates were changed for V1 recording to AP: −5.5-6.0 mm, ML: 3.2-3.5 mm, DV: 1.6-2.0 mm to ensure that recording is done from cortical layers of V1. […] Instead of wEPs, VEPs were recorded by visual stimulation. […]
All electrophysiological data analysis was done in Python, version 3.6, using custom scripts. […] For wEP and VEP analysis, moving averages were calculated for a window step size of 180 whisker deflections/visual stimuli (moving step size is 1 deflection/visual stimulus). […]

brain = conditions: cited from earlier work
[4] = i.v., without AU-FUS or UC-carriers

## NCc1cc(=O)[nH]o1 [muscimol]
[1]; free muscimol (250 ng) and vehicle-loaded UC-carriers with AU-FUS (control)
  change of wEPs in vM1, baseline vs post-treatment: No statistically significant changes
[1]; [4]
  systemic muscimol needed for comparable reduction of wEPs: at least 260 μg
  systemic muscimol needed for comparable reduction of wEPs, relative to measured payload of the UC-carriers: at least 1300 times
[1]; muscimol uncaged in vS1 by AU-FUS
  time of maximum inhibition in vM1: ≤ 20 min
[1]; systemic injection of free muscimol (250 ng) with AU-FUS (control)
  change of wEPs in vM1, baseline vs post-treatment: No statistically significant changes
[2]
  diffusion coefficient D: 8.7×10^−6 cm^2 s^−1
[3]
  change of VEPs recorded from V1: No statistically significant changes
brain
  amount of systemic muscimol required for brain inactivation: ~1.6 mg/kg
